Here are results for 21 compounds from patent publication US9090628B2, “Benzoxazepin compounds selective for PI3K P110 delta and methods of use” (GENENTECH, INC., priority 2011, dated 2015).

The term IC50 denotes the concentration needed to halve the response being measured. Read a high IC50 as lower potency.

The structures appear in SMILES notation. Where only a bound is given, the exact number is not on record here.

In assay [1] the target is p110 alpha (Homo sapiens (Human), UniProt P42336). Description: PI3K isoform inhibition assay, p110 alpha (for alpha/delta selectivity). The note with it: ratio of biochemical IC50 values. Put shortly: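 Fluorescence polarization displacement of a fluorescent PIP3 probe from GRP-1 detector by PI3K-formed PIP3; p110α/p85α at 40 ng/mL with 10 μM PIP2 substrate.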
The target of assay [2] is p110 delta (Homo sapiens (Human), UniProt O00329). Description: PI3K isoform inhibition assay, p110 delta (fluorescence polarization displacement). It is filed as biochemical.
Chain of p110 delta (O00329 whole entry, canonical isoform): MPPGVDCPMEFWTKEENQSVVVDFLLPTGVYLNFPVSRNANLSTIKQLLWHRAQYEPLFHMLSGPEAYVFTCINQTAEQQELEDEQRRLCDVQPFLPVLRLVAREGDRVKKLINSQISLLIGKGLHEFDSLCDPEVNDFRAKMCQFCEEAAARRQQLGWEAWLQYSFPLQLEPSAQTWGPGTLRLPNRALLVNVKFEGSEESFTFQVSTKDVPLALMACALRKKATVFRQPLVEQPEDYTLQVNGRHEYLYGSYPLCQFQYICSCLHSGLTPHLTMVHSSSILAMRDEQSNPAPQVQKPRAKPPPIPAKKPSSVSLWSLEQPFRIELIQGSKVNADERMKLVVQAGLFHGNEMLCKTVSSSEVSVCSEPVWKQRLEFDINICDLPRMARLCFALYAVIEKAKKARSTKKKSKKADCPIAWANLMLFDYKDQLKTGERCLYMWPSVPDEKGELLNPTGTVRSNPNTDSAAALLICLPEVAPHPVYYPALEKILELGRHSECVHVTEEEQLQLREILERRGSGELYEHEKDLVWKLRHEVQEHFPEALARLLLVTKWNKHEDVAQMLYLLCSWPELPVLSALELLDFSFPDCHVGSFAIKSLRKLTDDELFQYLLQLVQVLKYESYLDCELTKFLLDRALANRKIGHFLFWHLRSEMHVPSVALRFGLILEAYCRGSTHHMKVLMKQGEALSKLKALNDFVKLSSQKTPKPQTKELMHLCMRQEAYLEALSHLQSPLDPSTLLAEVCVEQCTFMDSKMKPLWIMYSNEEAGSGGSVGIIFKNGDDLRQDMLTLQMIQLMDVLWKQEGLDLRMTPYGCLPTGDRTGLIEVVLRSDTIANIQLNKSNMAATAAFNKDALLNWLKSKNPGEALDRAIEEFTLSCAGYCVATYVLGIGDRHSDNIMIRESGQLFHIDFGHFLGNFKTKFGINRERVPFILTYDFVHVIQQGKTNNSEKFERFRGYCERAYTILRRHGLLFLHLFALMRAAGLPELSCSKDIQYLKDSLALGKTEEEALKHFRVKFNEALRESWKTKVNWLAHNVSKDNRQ
Chain of p110 delta (P27986 whole entry partner, canonical isoform): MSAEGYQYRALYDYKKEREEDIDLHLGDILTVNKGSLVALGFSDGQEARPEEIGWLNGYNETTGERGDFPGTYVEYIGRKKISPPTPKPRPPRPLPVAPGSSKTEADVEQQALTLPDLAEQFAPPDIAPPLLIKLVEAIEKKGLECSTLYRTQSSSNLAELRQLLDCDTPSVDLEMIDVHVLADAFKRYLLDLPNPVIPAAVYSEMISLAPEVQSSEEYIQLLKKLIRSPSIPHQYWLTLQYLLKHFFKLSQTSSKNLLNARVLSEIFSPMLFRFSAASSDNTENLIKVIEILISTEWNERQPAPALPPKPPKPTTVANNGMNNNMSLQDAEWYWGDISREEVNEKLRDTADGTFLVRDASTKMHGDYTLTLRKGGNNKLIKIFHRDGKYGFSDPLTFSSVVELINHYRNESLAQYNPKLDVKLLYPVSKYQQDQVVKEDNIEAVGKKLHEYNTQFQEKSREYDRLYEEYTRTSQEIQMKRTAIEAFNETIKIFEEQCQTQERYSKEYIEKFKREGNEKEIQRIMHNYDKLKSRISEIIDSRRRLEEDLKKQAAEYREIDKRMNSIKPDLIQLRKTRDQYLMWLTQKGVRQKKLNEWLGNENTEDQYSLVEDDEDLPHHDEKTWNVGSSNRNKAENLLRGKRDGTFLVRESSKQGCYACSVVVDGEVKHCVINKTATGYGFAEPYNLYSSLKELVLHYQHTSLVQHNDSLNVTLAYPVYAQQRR

Chain of p110 alpha (P42336 whole entry, canonical isoform): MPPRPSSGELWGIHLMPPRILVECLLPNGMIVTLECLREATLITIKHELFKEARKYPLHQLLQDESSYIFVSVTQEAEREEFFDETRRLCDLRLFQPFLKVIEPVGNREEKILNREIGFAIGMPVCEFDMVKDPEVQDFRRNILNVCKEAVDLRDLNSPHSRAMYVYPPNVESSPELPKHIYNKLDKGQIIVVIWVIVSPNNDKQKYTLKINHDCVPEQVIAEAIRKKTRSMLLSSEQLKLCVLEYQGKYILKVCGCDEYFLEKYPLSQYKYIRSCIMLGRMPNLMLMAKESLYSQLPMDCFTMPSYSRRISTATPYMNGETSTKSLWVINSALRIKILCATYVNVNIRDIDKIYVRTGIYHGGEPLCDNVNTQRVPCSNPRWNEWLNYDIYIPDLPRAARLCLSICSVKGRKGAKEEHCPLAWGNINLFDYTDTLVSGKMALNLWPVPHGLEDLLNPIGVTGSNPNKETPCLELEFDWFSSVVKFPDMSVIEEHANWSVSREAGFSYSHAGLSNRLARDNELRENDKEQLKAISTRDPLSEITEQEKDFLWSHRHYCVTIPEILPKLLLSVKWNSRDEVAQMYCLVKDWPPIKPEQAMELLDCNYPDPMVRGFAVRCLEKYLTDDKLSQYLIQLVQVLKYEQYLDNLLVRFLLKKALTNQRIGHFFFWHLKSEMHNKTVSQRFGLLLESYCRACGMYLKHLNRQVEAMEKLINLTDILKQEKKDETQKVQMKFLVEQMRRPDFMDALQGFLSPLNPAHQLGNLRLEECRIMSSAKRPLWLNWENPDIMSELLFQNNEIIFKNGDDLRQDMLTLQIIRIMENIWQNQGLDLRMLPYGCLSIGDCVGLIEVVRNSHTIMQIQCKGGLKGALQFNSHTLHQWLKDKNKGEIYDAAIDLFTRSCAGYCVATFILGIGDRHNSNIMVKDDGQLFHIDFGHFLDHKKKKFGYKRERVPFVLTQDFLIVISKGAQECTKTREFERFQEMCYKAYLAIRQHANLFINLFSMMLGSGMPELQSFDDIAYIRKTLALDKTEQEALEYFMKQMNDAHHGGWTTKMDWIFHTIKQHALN
Chain of p110 alpha (P27986 whole entry partner, canonical isoform): as the sequence (P27986 whole entry partner, canonical isoform) above

Turning to `Cc1nc(-c2cn3c(n2)-c2cc(-c4ccnn4[C@H]4CCCN(C5COC5)C4)c(F)cc2OCC3)n(C(C)C)n1` [Example 352, (S)-9-fluoro-2-(1-isopropyl-3-methyl-1H-1,2,4-triazol-5-yl)-10-(1-(1-(oxetan-3-yl)piperidin-3-yl)-1H-pyrazol-5-yl)-5,6-dihydrobenzo[f]imidazo[1,2-d][1,4]oxazepine], in assay [1], the “IC50 p110 alpha/IC50 p110 delta” value amounted to 18. The same compound had an IC50 in assay [2] of 11.5 nM.

As to `Cc1nc(-c2cn3c(n2)-c2cc(-c4ccnn4C4CCCN(C(C)(C)CO)C4)c(F)cc2OCC3)n(C(C)C)n1` [Example 353, (R)-2-(3-(5-(9-fluoro-2-(1-isopropyl-3-methyl-1H-1,2,4-triazol-5-yl)-5,6-dihydrobenzo[f]imidazo[1,2-d][1,4]oxazepin-10-yl)-1H-pyrazol-1-yl)piperidin-1-yl)-2-methylpropan-1-ol], in assay [1], the “IC50 p110 alpha/IC50 p110 delta” value was 151. Besides, the IC50 in assay [2] worked out at 0.314 nM.

For the compound `Cc1nc(-c2cn3c(n2)-c2cc(-c4cnn(C)c4C4CC(N(C)C)CCO4)c(F)cc2OCC3)n(C(C)C)n1` (stereo not drawn) [Example 354, 2-[4-[9-fluoro-2-(2-isopropyl-5-methyl-1,2,4-triazol-3-yl)-5,6-dihydroimidazo[1,2-d][1,4]benzoxazepin-10-yl]-2-methyl-pyrazol-3-yl]-N,N-dimethyl-tetrahydropyran-4-amine], in assay [1], the “IC50 p110 alpha/IC50 p110 delta” value is 14.5. The compound further came in with an IC50 in assay [2] of 0.66 nM.

For the compound `Cc1nc(-c2cn3c(n2)-c2cc(-c4ccnn4C4CCCN(C(C)(C)CO)C4)c(F)cc2OCC3)n(C(C)C)n1` [Example 355, (R)-2-(3-(5-(9-fluoro-2-(1-isopropyl-3-methyl-1H-1,2,4-triazol-5-yl)-5,6-dihydrobenzo[f]imidazo[1,2-d][1,4]oxazepin-10-yl)-1H-pyrazol-1-yl)piperidin-1-yl)-2-methylpropan-1-ol], the “IC50 p110 alpha/IC50 p110 delta” value in assay [1] is reported as 46.4. In assay [2], the IC50 came to 0.415 nM.

Consider `COc1cc2c(cc1[C@@H](C)N1CCN(C(C)(C)C)CC1)-c1nc(-c3nc(C)nn3C(C)C)cn1CCO2` [Example 356, (R)-10-(1-(4-tert-butylpiperazin-1-yl)ethyl)-2-(1-isopropyl-3-methyl-1H-1,2,4-triazol-5-yl)-9-methoxy-5,6-dihydrobenzo[f]imidazo[1,2-d][1,4]oxazepine], for which the “IC50 p110 alpha/IC50 p110 delta” value in assay [1] is given as 45.5. This compound returned an IC50 in assay [2] of 1.05 nM.

For `COc1cc2c(cc1[C@H](C)N1CCN(C(C)(C)C)CC1)-c1nc(-c3nc(C)nn3C(C)C)cn1CCO2` [Example 357, (S)-10-(1-(4-tert-butylpiperazin-1-yl)ethyl)-2-(1-isopropyl-3-methyl-1H-1,2,4-triazol-5-yl)-9-methoxy-5,6-dihydrobenzo[f]imidazo[1,2-d][1,4]oxazepine], in assay [1], the “IC50 p110 alpha/IC50 p110 delta” value was 116. For the same compound, the IC50 in assay [2] is 0.784 nM.

Take `Cc1nc(-c2cn3c(n2)-c2cc(-c4cnn(C)c4C4CCCN(C(C)C)C4)c(F)cc2OCC3)n(C(C)C)n1` (stereo not drawn) [Example 358, 9-fluoro-2-(2-isopropyl-5-methyl-1,2,4-triazol-3-yl)-10-[5-(1-isopropyl-3-piperidyl)-1-methyl-pyrazol-4-yl]-5,6-dihydroimidazo[1,2-d][1,4]benzoxazepine]: the “IC50 p110 alpha/IC50 p110 delta” value in assay [1] is reported as 67.1. The compound also registered a half-inhibitory concentration (IC50) in assay [2] of 1.56 nM.

For `Cc1nc(-c2cn3c(n2)-c2cc(-c4cnn(C)c4C4CCCN(C(C)C)C4)c(F)cc2OCC3)n(C(C)C)n1` (stereo not drawn) [Example 359, 9-fluoro-2-(2-isopropyl-5-methyl-1,2,4-triazol-3-yl)-10-[5-(1-isopropyl-3-piperidyl)-1-methyl-pyrazol-4-yl]-5,6-dihydroimidazo[1,2-d][1,4]benzoxazepine], the “IC50 p110 alpha/IC50 p110 delta” value in assay [1] is recorded as 54.1. In assay [2], the IC50 is 0.37 nM.

On to `Cc1nc(-c2cn3c(n2)-c2ccc(-c4cn[nH]c4C4CCCN(C(C)C)C4)cc2OCC3)n(C(C)C)n1` (stereo not drawn) [Example 360, 2-(2-isopropyl-5-methyl-1,2,4-triazol-3-yl)-9-[5-(1-isopropyl-3-piperidyl)-1H-pyrazol-4-yl]-5,6-dihydroimidazo[1,2-d][1,4]benzoxazepine], for which the “IC50 p110 alpha/IC50 p110 delta” value in assay [1] came to 24. The IC50 in assay [2] stood at 0.311 nM.

With `Cc1nc(-c2cn3c(n2)-c2ccc(-c4cn[nH]c4C4CCCN(C(C)C)C4)cc2OCC3)n(C(C)C)n1` (stereo not drawn) [Example 361, 2-(2-isopropyl-5-methyl-1,2,4-triazol-3-yl)-9-[5-(1-isopropyl-3-piperidyl)-1H-pyrazol-4-yl]-5,6-dihydroimidazo[1,2-d][1,4]benzoxazepine], the “IC50 p110 alpha/IC50 p110 delta” value in assay [1] came to 23.6. In assay [2], the IC50 turned out to be 0.972 nM.

Regarding `Cc1nc(-c2cn3c(n2)-c2cc([C@H](C)N4CCN(C(C)(C)CO)CC4)ncc2OCC3)n(C(C)C)n1` [Example 364, (S)-2-(4-(1-(2-(1-isopropyl-3-methyl-1H-1,2,4-triazol-5-yl)-5,6-dihydroimidazo[1,2-d]pyrido[4,3-f][1,4]oxazepin-10-yl)ethyl)piperazin-1-yl)-2-methylpropan-1-ol], the “IC50 p110 alpha/IC50 p110 delta” value in assay [1] is reported as 85.9. The compound also gave an IC50 in assay [2] of 2.1 nM.

Consider `Cc1nc(-c2cn3c(n2)-c2cc([C@@H](C)N4CCN(C(C)(C)CO)CC4)ncc2OCC3)n(C(C)C)n1` [Example 365, (R)-2-(4-(1-(2-(1-isopropyl-3-methyl-1H-1,2,4-triazol-5-yl)-5,6-dihydroimidazo[1,2-d]pyrido[4,3-f][1,4]oxazepin-10-yl)ethyl)piperazin-1-yl)-2-methylpropan-1-ol], for which the “IC50 p110 alpha/IC50 p110 delta” value in assay [1] stood at 83.2. Further, in assay [2], the IC50 amounted to 2.63 nM.

With `Cc1nc(-c2cn3c(n2)-c2ccc(-c4cnn(C)c4C4CN(C(C)C)CCN4C)cc2OCC3)n(C(C)C)n1` (stereo not drawn) [Example 366, 9-[5-(4-isopropyl-1-methyl-piperazin-2-yl)-1-methyl-pyrazol-4-yl]-2-(2-isopropyl-5-methyl-1,2,4-triazol-3-yl)-5,6-dihydroimidazo[1,2-d][1,4]benzoxazepine], in assay [1], the “IC50 p110 alpha/IC50 p110 delta” value was determined as 172. This compound also returned an IC50 in assay [2] of under 0.035 nM.

On to `Cc1nc(-c2cn3c(n2)-c2ccc(-c4cnn(C)c4N4CCN(C)[C@H](C(C)C)C4)cc2OCC3)n(C(C)C)n1` [Example 367, 9-[5-[(3R)-3-isopropyl-4-methyl-piperazin-1-yl]-1-methyl-pyrazol-4-yl]-2-(2-isopropyl-5-methyl-1,2,4-triazol-3-yl)-5,6-dihydroimidazo[1,2-d][1,4]benzoxazepine], for which the “IC50 p110 alpha/IC50 p110 delta” value in assay [1] amounted to 48.8. This compound also showed an IC50 in assay [2] of 0.048 nM.

Consider `COc1cc2c(cc1[C@@H](C)N1CCN(C(C)(C)C)CC1)-c1nc(-c3nc(C)nn3C(C)C)cn1CCO2` [Example 368, 10-[(1R)-1-(4-tert-butylpiperazin-1-yl)ethyl]-2-(2-isopropyl-5-methyl-1,2,4-triazol-3-yl)-9-methoxy-5,6-dihydroimidazo[1,2-d][1,4]benzoxazepine], for which, in assay [1], the “IC50 p110 alpha/IC50 p110 delta” value is reported as 92.4. This compound also had an IC50 in assay [2] of 1.06 nM.

Consider `Cc1nc(-c2cn3c(n2)-c2ccc(-n4ccnc4C4CCCN(C(C)C)C4)cc2OCC3)n(C(C)C)n1` (stereo not drawn) [Example 369, 2-(2-isopropyl-5-methyl-1,2,4-triazol-3-yl)-9-[2-(1-isopropyl-3-piperidyl)imidazol-1-yl]-5,6-dihydroimidazo[1,2-d][1,4]benzoxazepine], for which, in assay [1], the “IC50 p110 alpha/IC50 p110 delta” value was determined as 40.4. The IC50 in assay [2] amounted to 3.09 nM.

On to `Cc1nc(-c2cn3c(n2)-c2cnc(-c4cnn(C)c4C4CCCN(C(C)C)C4)cc2OCC3)n(C(C)C)n1` (stereo not drawn) [Example 370, 2-(1-isopropyl-3-methyl-1H-1,2,4-triazol-5-yl)-9-(5-(1-isopropylpiperidin-3-yl)-1-methyl-1H-pyrazol-4-yl)-5,6-dihydroimidazo[1,2-d]pyrido[3,4-f][1,4]oxazepine], for which, in assay [1], the “IC50 p110 alpha/IC50 p110 delta” value is 16.1. Besides, the half-inhibitory concentration (IC50) in assay [2] turned out to be 0.571 nM.

Turning to `COc1cc2c(cc1[C@H](C)N1CCN(C(C)(C)C)CC1)-c1nc(-c3nc(C)nn3C(C)C)cn1CCO2` [Example 371, 10-[(1S)-1-(4-tert-butylpiperazin-1-yl)ethyl]-2-(2-isopropyl-5-methyl-1,2,4-triazol-3-yl)-9-methoxy-5,6-dihydroimidazo[1,2-d][1,4]benzoxazepine], in assay [1], the “IC50 p110 alpha/IC50 p110 delta” value is 11.7. In assay [2], this compound gave a half-inhibitory concentration (IC50) of 5.3 nM.

Turning to `Cc1nc(-c2cn3c(n2)-c2ccc(-c4cnn(C)c4C4CN(C(C)C)CCO4)cc2OCC3)n(C(C)C)n1` (stereo not drawn) [Example 372, 2-(2-isopropyl-5-methyl-1,2,4-triazol-3-yl)-9-[5-(4-isopropylmorpholin-2-yl)-1-methyl-pyrazol-4-yl]-5,6-dihydroimidazo[1,2-d][1,4]benzoxazepine], the “IC50 p110 alpha/IC50 p110 delta” value in assay [1] is 18. In assay [2], this compound gave an IC50 of 0.992 nM.

Take `Cc1nc(-c2cn3c(n2)-c2cc(C(C)N4CCN(C)CC4)c(F)cc2OCC3)n(C(C)C)n1` (stereo not drawn) [Example 373, 9-fluoro-2-(2-isopropyl-5-methyl-1,2,4-triazol-3-yl)-10-[1-(4-methylpiperazin-1-yl)ethyl]-5,6-dihydroimidazo[1,2-d][1,4]benzoxazepine]: the “IC50 p110 alpha/IC50 p110 delta” value in assay [1] is on record as 15.7. The compound also showed an IC50 in assay [2] of 3.13 nM.

`CCN1CCN(C(C)c2cc3c(cc2F)OCCn2cc(-c4nc(C)nn4C(C)C)nc2-3)CC1` (stereo not drawn) [Example 374, 10-[1-(4-ethylpiperazin-1-yl)ethyl]-9-fluoro-2-(2-isopropyl-5-methyl-1,2,4-triazol-3-yl)-5,6-dihydroimidazo[1,2-d][1,4]benzoxazepine]: the “IC50 p110 alpha/IC50 p110 delta” value in assay [1] was 17.9. In assay [2], this compound had a 50% inhibitory concentration (IC50) of 4.85 nM.
